pIC50: −log10 of the molar value.
What was measured:
U-118-MG = test: Cytostatic activity against human U118MG cells assessed as reduction in cell viability after 48 hrs by MTT assay; format: functional, cell-based
T98G = test: Cytostatic activity against human T98G cells assessed as reduction in cell viability after 48 hrs by MTT assay; format: functional, cell-based
MRC5 = test: Cytostatic activity against human MRC5 cells assessed as reduction in cell viability after 48 hrs by MTT assay; format: functional, cell-based; conditions: MRC5, 48 h
U-87 MG = test: Cytostatic activity against human U87MG cells assessed as reduction in cell viability after 48 hrs by MTT assay; format: functional, cell-based, U-87MG ATCC
[1] = Half life in RPMI/FBS cell culture media 9:1 (v/v) at 2 mM by HPLC analysis; format: physicochemical; conditions: cattle
HeLa = test: Cytostatic activity against human HeLa cells assessed as reduction in cell viability after 48 hrs by MTT assay; format: functional, cell-based
T47D = test: Cytostatic activity against human T47D cells assessed as reduction in cell viability after 48 hrs by MTT assay; format: functional, cell-based
[2] = Selectivity index, ratio of IC50 for human MRC5 cells to IC50 for human U118MG cells; format: toxicity; conditions: MRC5 cells and U118MG cells, read-out: Ratio IC50
[3] = Stability in RPMI cell culture media at 2 mM by HPLC analysis; format: physicochemical; conditions: 2000 µM
[4] = Selectivity index, ratio of IC50 for human MRC5 cells to IC50 for human U87MG cells; format: toxicity; conditions: MRC5 cells and U87MG cells, read-out: Ratio IC50
[5] = Half life in human serum at 2 mM by HPLC analysis; format: ADME, cell-free
Caco-2 = test: Cytostatic activity against human Caco2 cells assessed as reduction in cell viability after 48 hrs by MTT assay; format: functional, cell-based; conditions: Caco-2, 48 h
[6] = Selectivity index, ratio of IC50 for human MRC5 cells to IC50 for human T98G cells; format: toxicity; conditions: MRC5 cells and T98G cells, read-out: Ratio IC50
[7] = Half life in RPMI/FBS cell culture media 9:1 (v/v) assessed as cumulative concentration of metabolites of known anticancer activity at 2 mM by HPLC analysis; format: ADME; conditions: 2000 µM

SMILES | pIC50 (U-87 MG) | half-life at 2000 µM [1] [h] | pIC50 (HeLa) | pIC50 (T47D) | Stability [3] | half-life at 2000 µM [5] [h] | pIC50 (Caco-2) | t1/2 [7] [h] | pIC50 (U-118-MG) | pIC50 (T98G) | pIC50 (MRC5) | selectivity ratio [2] | selectivity ratio [4] | selectivity ratio [6]
Oc1ccc[n+](Cc2ccccc2)c1 | < 3.70 | – | – | – | – | – | – | – | < 3.70 | < 3.70 | < 3.70 | – | – | –
Oc1cccnc1 | < 3.30 | – | – | – | – | – | – | – | < 3.30 | < 3.30 | < 3.30 | – | – | –
O=c1[nH]c(=O)n([C@H]2C[C@H](O)[C@@H](COP(=O)(O)Oc3ccc4ncccc4c3)O2)cc1F | 4.97 | 26 | 5.14 | 5.09 | Stable | 26.2 | 5.85 | – | 5.15 | 5.72 | 5.89 | < 1 | < 1 | < 1
C[N+]1(C)CCC(OP(=O)([O-])OC[C@H]2O[C@@H](n3cc(F)c(=O)[nH]c3=O)C[C@@H]2OC(=O)c2ccccc2)CC1 | 5.89 | > 120 | 4.57 | 4.93 | Stable | > 120 | 4.80 | – | 5.35 | 5.17 | 5.08 | 2 | 7 | 1
O=c1[nH]c(=O)n([C@H]2C[C@H](O)[C@@H](COP(=O)(O)Oc3ccccc3)O2)cc1F | 4.47 | 28 | 4.82 | 4.87 | Stable | 52.3 | 4.58 | – | 4.84 | 4.49 | 4.44 | 3 | 1 | 1
CCCCCCCCCc1ccc(OP(=O)(O)OC[C@H]2O[C@@H](n3cc(F)c(=O)[nH]c3=O)C[C@@H]2OC(=O)c2ccccc2)cc1 | 5.17 | > 120 | 4.40 | 4.57 | Stable | > 120 | 4.69 | – | 4.96 | 5.17 | 4.40 | 4 | 6 | 6
CCOC(=O)C[n+]1cccc2cc(O)ccc21 | < 3.70 | – | – | – | – | – | – | – | < 3.70 | < 3.70 | 3.79 | – | – | –
O=c1[nH]c(=O)n([C@H]2C[C@H](O)[C@@H](COP(=O)(O)Oc3cccnc3)O2)cc1F | 4.40 | 16.7 | 6.15 | 5.03 | Stable | 19.9 | 5.47 | – | 4.56 | 5.92 | 5.07 | < 1 | < 1 | 7
C[N+](C)(CCOP(=O)([O-])OC[C@H]1O[C@@H](n2cc(F)c(=O)[nH]c2=O)C[C@@H]1OC(=O)c1ccccc1)Cc1ccccc1 | 6.21 | 54 | 5.82 | 4.48 | Stable | 96.3 | 4.93 | – | 5.43 | 5.70 | 6.22 | < 1 | 1 | < 1
C[N+]1(Cc2ccccc2)C2CCC1CC(OP(=O)([O-])OC[C@H]1O[C@@H](n3cc(F)c(=O)[nH]c3=O)C[C@@H]1OC(=O)c1ccccc1)C2 (stereo not given in full) | 4.44 | > 120 | < 4.10 | < 4.10 | Stable | > 120 | < 4.10 | – | 4.18 | 4.30 | 4.20 | 1 | 2 | 1
CCOC(=O)C[n+]1cccc(O)c1 | < 3.70 | – | – | – | – | – | – | – | < 3.70 | < 3.70 | < 3.70 | – | – | –
CCCCCCCCCC[n+]1cccc(O)c1 | 3.80 | – | – | – | – | – | – | – | 3.90 | 4.25 | 3.90 | – | – | –
C[N+](C)(C)CCOP(=O)([O-])OC[C@H]1O[C@@H](n2cc(F)c(=O)[nH]c2=O)C[C@@H]1OC(=O)c1ccccc1 | 5.75 | 20 | 5.44 | 4.40 | Stable | 116 | 5.09 | – | 5.12 | 4.61 | 5.89 | < 1 | < 1 | < 1
O=C(O[C@H]1C[C@H](n2cc(F)c(=O)[nH]c2=O)O[C@@H]1COP(=O)(O)Oc1cccnc1)c1ccccc1 | 6.15 | 6.7 | 5.16 | 4.84 | Stable | 17.8 | 5.60 | – | 6.04 | 5.89 | 4.81 | 17 | 22 | 12

Further lines, with some results ahead:

pIC50 (U-87 MG) | half-life at 2000 µM [1] [h] | pIC50 (HeLa) | pIC50 (T47D) | Stability [3] | half-life at 2000 µM [5] [h] | pIC50 (Caco-2) | t1/2 [7] [h] | SMILES | pIC50 (U-118-MG) | pIC50 (T98G) | pIC50 (MRC5) | selectivity ratio [2] | selectivity ratio [4] | selectivity ratio [6]
6.23 | 14.8 | 5.90 | 5.41 | Stable | 37.3 | 5.86 | – | C[n+]1cccc(OP(=O)([O-])OC[C@H]2O[C@@H](n3cc(F)c(=O)[nH]c3=O)C[C@@H]2OC(=O)c2ccccc2)c1 | 5.50 | 5.46 | 5.24 | 2 | 10 | 2
6.18 | 10.8 | 6.28 | 5.46 | Stable | 14.4 | 6.37 | – | O=C(O[C@H]1C[C@H](n2cc(F)c(=O)[nH]c2=O)O[C@@H]1COP(=O)([O-])Oc1ccc[n+](Cc2ccccc2)c1)c1ccccc1 | 5.83 | 5.59 | 4.41 | 26 | 58 | 15
6.06 | 7.7 | 5.14 | 5.15 | Stable | 16.5 | 5.61 | – | O=C(O[C@H]1C[C@H](n2cc(F)c(=O)[nH]c2=O)O[C@@H]1COP(=O)(O)Oc1ccc2ncccc2c1)c1ccccc1 | 6.10 | 5.89 | 5.89 | 2 | 1 | 1
6.28 | 2 | 6.22 | 4.67 | Stable | 5.9 | 4.54 | 15.6 | CCOC(=O)C[n+]1cccc2cc(OP(=O)([O-])OC[C@H]3O[C@@H](n4cc(F)c(=O)[nH]c4=O)C[C@@H]3OC(=O)c3ccccc3)ccc21 | 6.12 | 4.89 | 4.46 | 46 | 66 | 3
6.17 | 16.5 | 5.92 | 5.06 | Stable | 8.3 | 4.89 | – | CCCCCCCCCC[n+]1cccc(OP(=O)([O-])OC[C@H]2O[C@@H](n3cc(F)c(=O)[nH]c3=O)C[C@@H]2OC(=O)c2ccccc2)c1 | 6.49 | 6.40 | 4.85 | 44 | 21 | 35
6.24 | 1.1 | 5.21 | 4.90 | Stable | 1.4 | 5.58 | 8.6 | CCOC(=O)C[n+]1cccc(OP(=O)([O-])OC[C@H]2O[C@@H](n3cc(F)c(=O)[nH]c3=O)C[C@@H]2OC(=O)c2ccccc2)c1 | 5.81 | 5.80 | 5.07 | 6 | 15 | 5
6.10 | 6.6 | 5.23 | 5.16 | Stable | 5.1 | 5.99 | – | O=C(O[C@H]1C[C@H](n2cc(F)c(=O)[nH]c2=O)O[C@@H]1COP(=O)(O)Oc1ccccc1)c1ccccc1 | 6.01 | 6.09 | 5.90 | 1 | 2 | 2
